Target: T1, Human Factor D (Homo sapiens, UniProt P00746)
T1 construct: purified from human serum; purchased Complement Technology, Inc; host or cells: human serum (natural protein, not recombinant)
Assay: Human Factor D Assay
Type: biochemical
Conditions: not given
Protocol: Example 8. Human Factor D Assay
Human Factor D (purified from human serum, Complement Technology, Inc.) at 80 nM final concentration is incubated with test compound at various concentrations for 5 minutes at room temperature in 50 mM Tris, 1M NaCl, pH 7.5. A synthetic substrate Z-L-Lys-SBzl and DTNB (Ellman's reagent) are added to final concentrations of 100 μM each. Absorbance at 405 nm (A405) is recorded at 30 second intervals for 30 minutes using a microplate spectrophotometer. IC50 values are calculated by nonlinear regression of complement Factor D reaction rates as a function of test compound concentration.

T1 sequence (P00746 26-253): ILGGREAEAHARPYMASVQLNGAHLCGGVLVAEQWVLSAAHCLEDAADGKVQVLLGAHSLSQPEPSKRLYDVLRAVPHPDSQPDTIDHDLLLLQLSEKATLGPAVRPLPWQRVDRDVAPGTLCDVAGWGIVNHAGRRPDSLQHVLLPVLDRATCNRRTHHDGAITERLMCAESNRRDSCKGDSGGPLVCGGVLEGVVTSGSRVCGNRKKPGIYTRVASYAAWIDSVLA

Row | Compound | IC50 [nM]
1 | NC(=O)c1nn(CC(=O)N2C[C@H](F)C[C@H]2C(=O)Nc2cccc(-c3ccccc3Cl)c2F)c2ccc(Oc3cncnc3)cc12 [Compound 31, 1-(2-((2S,4R)-2-((2′-Chloro-2-fluoro-[1,1′-biphenyl]-3-yl)carbamoyl)-4-fluoropyrrolidin-1-yl)-2-oxoethyl)-5-(pyrimidin-5-yloxy)-1H-indazole-3-carboxamide] | < 1000
2 | CC(=O)c1cn(CC(=O)N2C[C@H](F)C[C@H]2C(=O)Nc2cccc(-c3ccccc3Cl)c2F)c2ccc(Oc3cnc(Cl)nc3)cc12 [Compound 43, (2S,4R)-1-(2-(3-acetyl-5-(2-chloropyrimidin-5-yloxy)-1H-indol-1-yl)acetyl)-N-(2′-chloro-2-fluorobiphenyl-3-yl)-4-fluoropyrrolidine-2-carboxamide] | < 1000

Same assay, conditions: Table 1; Human Factor D 80 nM, substrate Z-L-Lys-SBzl; read-out: IC50

Row | Compound | IC50 [nM]
3 | CC(=O)c1cn(CC(=O)N2C[C@H](F)C[C@H]2C(=O)Nc2cccc(Oc3ccccc3)c2)c2cc(OCP(=O)(O)O)ccc12 [Compound 26, (3-acetyl-1-(2-((2S,4R)-4-fluoro-2-(3-phenoxyphenylcarbamoyl)pyrrolidin-1-yl)-2-oxoethyl)-1H-indol-6-yloxy)methylphosphonic acid] | < 1000
4 | CC(=O)c1cn(CC(=O)N2C[C@H](F)C[C@H]2C(=O)Nc2cccc(OC(F)(F)F)c2F)c2cc(OCP(=O)(O)O)ccc12 [Compound 27, (3-acetyl-1-(2-((2S,4R)-4-fluoro-2-(2-fluoro-3-(trifluoromethoxy)phenylcarbamoyl)pyrrolidin-1-yl)-2-oxoethyl)-1H-indol-6-yloxy)methylphosphonic acid] | < 1000
5 | CC(C)(C)NS(=O)(=O)COc1ccc2c(C(N)=O)nn(CC(=O)N3C[C@H](F)C[C@H]3C(=O)Nc3cccc(-c4ccccc4Cl)c3F)c2c1 [Compound 28] | < 1000
6 | NC(=O)c1nn(CC(=O)N2C[C@H](F)C[C@H]2C(=O)Nc2cccc(-c3ccccc3Cl)c2F)c2cc(OCS(N)(=O)=O)ccc12 [Compound 29] | < 1000
7 | CC(=O)c1cn(CC(=O)N2C[C@H](F)C[C@H]2C(=O)NCc2cccc(Cl)c2F)c2cc(Oc3ncccn3)ccc12 [Compound 30, (2S,4R)-1-(2-(3-Acetyl-6-(pyrimidin-2-yloxy)-1H-indol-1-yl)acetyl)-N-(3-chloro-2-fluorobenzyl)-4-fluoropyrrolidine-2-carboxamide] | < 1000
8 | CC(=O)c1cn(CC(=O)N2C[C@H](F)C[C@H]2C(=O)Nc2cccc(-c3ccccc3Cl)c2F)c2cc(Oc3ncccn3)ccc12 [Compound 32, (2S,4R)-1-(2-(3-Acetyl-6-(pyrimidin-2-yloxy)-1H-indol-1-yl)acetyl)-N-(2′-chloro-2-fluoro-[1,1′-biphenyl]-3-yl)-4-fluoropyrrolidine-2-carboxamide] | < 1000
9 | CC(=O)c1cn(CC(=O)N2C[C@H](F)C[C@H]2C(=O)Nc2cccc(-c3ccccc3Cl)c2F)c2ccc(Oc3ncc(Br)cn3)cc12 [Compound 33, (2S,4R)-1-(2-(3-Acetyl-5-((5-bromopyrimidin-2-yl)oxy)-1H-indol-1-yl)acetyl)-N-(2′-chloro-2-fluoro-[1,1′-biphenyl]-3-yl)-4-fluoropyrrolidine-2-carboxamide] | < 1000
10 | CC(=O)c1cn(CC(=O)N2[C@@H]3C[C@@H]3C[C@H]2C(=O)Nc2cccc(-c3ccccc3Cl)c2F)c2ccc(Oc3ncc(Br)cn3)cc12 [Compound 34, (1R,3S,5R)-2-(2-(3-Acetyl-5-((5-bromopyrimidin-2-yl)oxy)-1H-indol-1-yl)acetyl)-N-(2′-chloro-2-fluoro-[1,1′-biphenyl]-3-yl)-2-azabicyclo[3.1.0]hexane-3-carboxamide] | < 1000
11 | CC(=O)c1cn(CC(=O)N2C[C@H](F)C[C@H]2C(=O)Nc2cccc(Br)n2)c2ccc(Oc3ncc(Br)cn3)cc12 [Compound 35, (2S,4R)-1-(2-(3-acetyl-5-(5-bromopyrimidin-2-yloxy)-1H-indol-1-yl)acetyl)-N-(6-bromopyridin-2-yl)-4-fluoropyrrolidine-2-carboxamide] | < 1000
12 | CC(=O)c1cn(CC(=O)N2C[C@H](F)C[C@H]2C(=O)Nc2cccc(-c3ccccc3Cl)c2F)c2ccc(Oc3cnc(C#N)nc3)cc12 [Compound 36, (2S,4R)-1-(2-(3-acetyl-5-(2-cyanopyrimidin-5-yloxy)-1H-indol-1-yl)acetyl)-N-(2′-chloro-2-fluorobiphenyl-3-yl)-4-fluoropyrrolidine-2-carboxamide] | < 1000
13 | CC(=O)c1cn(CC(=O)N2C[C@H](F)C[C@H]2C(=O)Nc2cccc(-c3ccccc3Cl)c2F)c2ccc(Oc3ncc(F)cn3)cc12 [Compound 37, (2S,4R)-1-(2-(3-acetyl-5-(5-fluoropyrimidin-2-yloxy)-1H-indol-1-yl)acetyl)-N-(2′-chloro-2-fluorobiphenyl-3-yl)-4-fluoropyrrolidine-2-carboxamide] | < 1000
14 | CC(=O)c1cn(CC(=O)N2C[C@H](F)C[C@H]2C(=O)Nc2cccc(-c3ccccc3Cl)c2F)c2ccc(Oc3ncccn3)cc12 [Compound 38, (2S,4R)-1-(2-(3-acetyl-5-(pyrimidin-2-yloxy)-1H-indol-1-yl)acetyl)-N-(2′-chloro-2-fluorobiphenyl-3-yl)-4-fluoropyrrolidine-2-carboxamide] | < 1000
15 | CC(=O)c1cn(CC(=O)N2C[C@H](F)C[C@H]2C(=O)Nc2cccc(Br)n2)c2ccc(Oc3ncccn3)cc12 [Compound 39, (2S,4R)-1-(2-(3-acetyl-5-(pyrimidin-2-yloxy)-1H-indol-1-yl)acetyl)-N-(6-bromopyridin-2-yl)-4-fluoropyrrolidine-2-carboxamide] | < 1000
16 | CC(=O)c1cn(CC(=O)N2C[C@H](F)C[C@H]2C(=O)Nc2cccc(-c3ccccc3Cl)c2F)c2ccc(Oc3ncc(C)cn3)cc12 [Compound 40, (2S,4R)-1-(2-(3-acetyl-5-(5-methylpyrimidin-2-yloxy)-1H-indol-1-yl)acetyl)-N-(2′-chloro-2-fluorobiphenyl-3-yl)-4-fluoropyrrolidine-2-carboxamide] | < 1000
17 | CC(=O)c1cn(CC(=O)N2C[C@H](F)C[C@H]2C(=O)Nc2cccc(Br)n2)c2ccc(Oc3ncc(C)cn3)cc12 [Compound 41, (2S,4R)-1-(2-(3-acetyl-5-(5-methylpyrimidin-2-yloxy)-1H-indol-1-yl)acetyl)-N-(6-bromopyridin-2-yl)-4-fluoropyrrolidine-2-carboxamide] | < 1000
18 | CC(=O)c1cn(CC(=O)N2C[C@H](F)C[C@H]2C(=O)Nc2cccc(-c3ccccc3Cl)c2F)c2ccc(Oc3ncc(C(F)(F)F)cn3)cc12 [Compound 42, (2S,4R)-1-(2-(3-acetyl-5-(5-(trifluoromethyl)pyrimidin-2-yloxy)-1H-indol-1-yl)acetyl)-N-(2′-chloro-2-fluorobiphenyl-3-yl)-4-fluoropyrrolidine-2-carboxamide] | < 1000

Same assay, conditions: Table 2; Human Factor D 80 nM, substrate Z-L-Lys-SBzl; read-out: IC50

Row | IC50 [nM] | Compound
19 | < 1000 | CC(=O)c1cn(CC(=O)N2C[C@H](F)C[C@H]2C(=O)Nc2cccc(-c3ccccc3Cl)c2F)c2ccc(O[C@@H]3CO[C@H]4[C@@H]3OC[C@H]4O)cc12 [Compound 44]
20 | < 1000 | CC(=O)c1cn(CC(=O)N2C[C@H](F)C[C@H]2C(=O)Nc2cccc(Br)n2)c2ccc(O[C@@H]3CO[C@H]4[C@@H]3OC[C@H]4O)cc12 [Compound 45, (2S,4R)-1-(2-(3-acetyl-5-((3R,3aR,6R,6aR)-6-hydroxyhexahydrofuro[3,2-b]furan-3-yloxy)-1H-indol-1-yl)acetyl)-N-(6-bromopyridin-2-yl)-4-fluoropyrrolidine-2-carboxamide]
21 | < 1000 | CO[C@@H]1CO[C@H]2[C@@H]1OC[C@H]2Oc1ccc2c(c1)c(C(C)=O)cn2CC(=O)N1C[C@H](F)C[C@H]1C(=O)Nc1cccc(-c2ccccc2Cl)c1F [Compound 46, (2S,4R)-1-(2-(3-acetyl-5-((3R,3aR,6R,6aR)-6-methoxyhexahydrofuro[3,2-b]furan-3-yloxy)-1H-indol-1-yl)acetyl)-N-(2′-chloro-2-fluorobiphenyl-3-yl)-4-fluoropyrrolidine-2-carboxamide]
22 | < 1000 | CO[C@@H]1CO[C@H]2[C@@H]1OC[C@H]2Oc1ccc2c(c1)c(C(C)=O)cn2CC(=O)N1C[C@H](F)C[C@H]1C(=O)Nc1cccc(Br)n1 [Compound 47, (2S,4R)-1-(2-(3-acetyl-5-((3R,3aR,6R,6aR)-6-methoxyhexahydrofuro[3,2-b]furan-3-yloxy)-1H-indol-1-yl)acetyl)-N-(6-bromopyridin-2-yl)-4-fluoropyrrolidine-2-carboxamide]

Same assay, conditions: Table 3; Human Factor D 80 nM, substrate Z-L-Lys-SBzl; read-out: (IC50 (Stars))

Row | IC50 [nM] | Compound
23 | < 1000 | CC(=O)c1cn(CC(=O)N2C[C@H](F)C[C@H]2C(=O)NCc2ccccc2)c2ccc(OCS(=O)(=O)NC(C)(C)C)cc12 [Compound 129, (2S,4R)-1-(2-(3-Acetyl-5-((N-(tert-butyl)sulfamoyl)methoxy)-1H-indol-1-yl)acetyl)-N-benzyl-4-fluoropyrrolidine-2-carboxamide]
24 | < 1000 | CC(=O)c1cn(CC(=O)N2C[C@H](F)C[C@H]2C(=O)NCc2ccccc2)c2ccc(OCS(N)(=O)=O)cc12 [Compound 130, (2S,4R)-1-(2-(3-Acetyl-5-(sulfamoylmethoxy)-1H-indol-1-yl)acetyl)-N-benzyl-4-fluoropyrrolidine-2-carboxamide]
25 | < 1000 | CC(=O)c1cn(CC(=O)N2C[C@H](F)C[C@H]2C(=O)NCCc2ccccc2)c2ccc(OCS(=O)(=O)NC(C)(C)C)cc12 [Compound 132, (2S,4R)-1-(2-(3-Acetyl-5-((N-(tert-butyl)sulfamoyl)methoxy)-1H-indol-1-yl)acetyl)-4-fluoro-N-phenethylpyrrolidine-2-carboxamide]
26 | 1000 to 10000 | CC(=O)c1cn(CC(=O)N2C[C@H](F)C[C@H]2C(=O)NCCc2ccccc2)c2ccc(OCS(N)(=O)=O)cc12 [Compound 133, (2S,4R)-1-(2-(3-Acetyl-5-(sulfamoylmethoxy)-1H-indol-1-yl)acetyl)-4-fluoro-N-phenethylpyrrolidine-2-carboxamide]

Source: US10385097B2, “Ether compounds for treatment of medical disorders” (Achillion Pharmaceuticals, Inc., priority 2015, dated 2019)
